Laboratory results published in patent US4772599A, “Benzodiazepine derivatives and their preparation and use” (A/S Ferrosan, priority 1986, dated 1988).

tested on: benzodiazepine receptors; test: In vivo displacement of 3H-flunitrazepam from brain benzodiazepine receptors; details: mice (female, NMR), test substance i.p. 15 min before 3H-FNM i.v.; dose inhibiting 50% of specific 3H-FNM binding in forebrain
Text: The pharmaceutical properties of the compounds of the invention can be illustrated by determining their capability for displacing radioactivity labelled flunitrazepam from benzodiazepine receptors.
The displacement activity of the compounds of the invention may be found by determining the ED50 value. The ED50 value represents the dose (mg/kg) of a test substance which causes the specific binding of flunitrazepam to benzodiazepine receptors in a living brain to be reduced to 50% of the control value.
Such an in vivo test is carried out as follow:
Principle. Twenty minutes after a dose of ^3 H-flunitrazepam (^3 H-FNM) (200 μCi/kg, i.v.) the amount of specific ^3 H-FNM binding to brain benzodiazepine receptors has reached its maximal value.
Test procedure. Suspensions of test substances (2 mg/ml) are prepared in 5% Duphasol-X (TM Duphar, caster oil-ethylene oxide derivative for emulsifying and solubilizing oil and other water-insoluble substances) by sonification for 10 min using a Branson B15 microtip ultrasonifier (setting 7). Groups of three mice (female, NMR, 18-22 grams) are injected with the test substance at 100 mg/kg intraperitoneally. Fifteen minutes after test substance administration the mice are challenged with 4 μCi intravenously of ^3 H-FNM (70-90 Ci/mole) in 200 μl physiological saline. Twenty minutes after ^3 H-FNM administration mice are sacrificed by decapitation, the forebrains rapidly excised (within 30 sec) and homogenized in 12 ml of icecold 25 mM KH2 PO4, pH 7.1, using an Ultra-Turrax™ homogenizer fitted with an N 10 shaft. Two aliquots of 1 ml are immediately filtered through Whatman GF/C glassfibre filters and washed with 2×5 ml of the above mentioned buffer. The amounts of radioactivity on the filters are determined by conventional scintillation counting. One group of untreated mice serves as control. One to three mice are injected with 25 μg/kg clonazepam i.p. 30 minutes before ^3 H-FNM to determine the amount of non-specific ^3 H-FNM binding, which should be between 8-15% of total binding. When doses of 100 mg/kg inhibit more than 50% of specific ^3 H-flunitrazepam binding, test substances are administered in doses, which are factors of 3.16 times lower than 100 mg/kg. The ED50 for a test substance is defined as that dose which inhibits 50% of specific ^3 H-FNM binding. Specific binding is the amount of binding in controls minus the amount of binding in clonazepam-treated mice.
Results. The ED50 value is determined from dose response curves. If only one dose of test substance is administered the ED50 value is calculated as follows, provided that the inhibition of specific binding is within the range of 25-75%: [formula] where Co is specific binding in controls of Cx is specific binding in mice treated with test substance.

| Structure (SMILES) | In vivo displacement activity: ED50 [mg/kg] |
| --- | --- |
| COC(=O)c1cccc2c1C(=O)N(C)Cc1c(-c3nc(C4CC4)no3)ncn1-2 | 0.4 |
| CCOC(=O)c1cccc2c1C(=O)N(C)Cc1c(-c3nc(C4CC4)no3)ncn1-2 | 1.4 |
| CCc1noc(-c2cccc3c2C(=O)N(C)Cc2c(-c4nc(CC)no4)ncn2-3)n1 | 1.3 |
| Cc1nc(-c2ncn3c2CN(C)C(=O)c2c(-c4nc(-c5ccccc5)no4)cccc2-3)no1 | 1.7 |
| CCOC(=O)c1cccc2c1C(=O)N(C)Cc1c(-c3noc(C)n3)ncn1-2 | 1.5 |
